In patent US10034836B2, “Formulations of guanylate cyclase C agonists and methods of use” (SYNERGY PHARMACEUTICALS, INC., priority 2008, dated 2018):
Where a SMILES comes first, the peptide text is derived from it. Bridges are numbered along the chain shown (N, C = ends).

What was measured:
[1] = Stability in simulated intestinal fluid (SIF), biological activity by cGMP synthesis in T84 cells; assay type: in vitro ADME
Experimental: FIG. 2A: Biological activity of SP-304 incubated for varying lengths of time in simulated intestinal fluid (SIF). SP-304 samples were incubated for 0, 30, 60, 90, 150, and 300 min, respectively, and then tested for their ability to stimulate cGMP synthesis in T84 cells. The cGMP stimulation activity in the sample at 0 min of incubation time in SIF was taken as 100% biological activity. The activities of the other SP-304 incubation samples were calculated as the percentage of activity relative to that of the 0 min sample. Data points shown are the average of triplicate measurements±SD.
(§1) FIG. 7A: Biological activity of SP-333 incubated for varying lengths of time in simulated intestinal fluid (SIF). SP-333 samples incubated for 0, 5, 10, 30, 60, and 120 min, respectively, were tested for their ability to stimulate cGMP synthesis in T84 cells. The control sample marked as C120 was produced by incubating SP-333 with heat inactivated SIF for 120 min. Samples from the incubations were removed and heated at 95° C. for 5 min to inactivate digestive enzymes and then used to stimulate cyclic GMP synthesis in T84 cells. The cGMP stimulation activity in the sample at 0 min of incubation time in SIF was taken as 100% biological activity. The activities of the other SP-304 incubation samples were calculated as the percentage of activity relative to that of the 0 min sample. Data points shown are the average of triplicate measurements±SD.
as §1, with “FIG. 7B:” for “FIG. 7A:”, “of SP-332” for “of SP-333”, “incubating SP-332” for “incubating SP-333”
FIG. 7C: Biological activity of SP-304 incubated for varying lengths of time in simulated intestinal fluid (SIF). SP-304 samples incubated for 0, 10, and 60 min, respectively, were tested for their ability to stimulate cGMP synthesis in T84 cells. The control samples marked as C0 and C60 were produced by incubating SP-304 with heat inactivated SIF for 0 and 60 min, respectively. Samples from the incubations were removed and heated at 95° C. for 5 min to inactivate digestive enzymes and then used to stimulate cyclic GMP synthesis in T84 cells. The cGMP stimulation activity in the sample at 0 min of incubation time in SIF was taken as 100% biological activity. The activities of the other SP-304 incubation samples were calculated as the percentage of activity relative to that of the 0 min sample. […]
FIGS. 7G-1-7G-5: Incubation of SP-333 with SIF for 2, 6, 12 and 24 hrs. Effect of SIF digestion on the activity of SP-333 in T84 stimulation assay was determined (FIG. 7G-1) and samples were also analyzed by HPLC (FIGS. 7G2-5). […]
The stability of SP-304 was also evaluated after incubation with simulated intestinal fluid (SIF) by measuring its biological activity and by HPLC analyses (FIGS. 2A & 2B). […]

[2] = test system: healthy male and female subjects; test: Phase 1 single ascending oral dose study, safety and tolerability; conditions: healthy volunteers
[3] = assay type: in vitro ADME; conditions: pH 2
Experimental: FIG. 1A: Biological activity of SP-304 incubated for varying lengths of time in simulated gastric fluid (SGF). The biological activity of SP-304 was determined by measuring its ability to stimulate cGMP synthesis in T84 cells. Samples incubated for 0, 15, 30, 60, 90 and 120 minutes, respectively, were collected and analyzed for biological activity—with activity of the 0 min sample defined as 100% biological activity. The activities of the other samples are shown as percentage activity relative to the 0 min activity sample. Data points shown are the average of triplicate measurements±SD.
The stability of SP-304 in the presence of simulated gastric fluid (SGF) was determined by biological activity measurements and HPLC analyses (FIGS. 1A & 1B). SP-304 (final concentration of 8.5 mg/ml) was incubated in SGF (Proteose peptone (8.3 g/liter; Difco), D-Glucose (3.5 g/liter; Sigma), NaCl (2.05 g/liter; Sigma), KH2PO4 (0.6 g/liter; Sigma), CaCl2 (0.11 g/liter), KCl (0.37 g/liter; Sigma), Porcine bile (final 1× concentration 0.05 g/liter; Sigma) in PBS, Lysozyme (final 1× concentration 0.10 g/liter; Sigma) in PBS, Pepsin (final 1× concentration 0.0133 g/liter; Sigma) in PBS). SGF was made on the day of the experiment and the pH was adjusted to 2.0±0.1 using HCl or NaOH as necessary. After the pH adjustment, SGF is filter sterilized with 0.22 μm membrane filters. […]

Q: Which “loss of potency following digestion with SIF” value [1] does the source give for `CC(C)C[C@H](NC(=O)[C@@H]1CSSC[C@@H]2NC(=O)[C@H](CC(C)C)NC(=O)[C@H](CCC(=O)O)NC(=O)[C@@H](NC(=O)[C@H](CCC(=O)O)NC(=O)[C@H](CC(=O)O)NC(=O)[C@@H](N)CC(N)=O)CSSC[C@H](NC(=O)[C@H](C)NC(=O)[C@H](C(C)C)NC(=O)[C@H](CC(N)=O)NC(=O)[C@H](C(C)C)NC2=O)C(=O)N[C@@H]([C@@H](C)O)C(=O)NCC(=O)N1)C(=O)O` [SP-304, Asn^1-Asp^2-Glu^3-Cys^4-Glu^5-Leu^6-Cys^7-Val^8-Asn^9-Val^10-Ala^11-Cys^12-Thr^13-Gly^14-Cys^15-Leu^16] (H-NDECELCVNVACTGCL-OH; disulfide 4-12, 7-15) here?
A: about 30%

Q: What about the “reduction in biological activity after incubation in SIF” value [1] of the same compound?
A: 30%

Q: And the “reduction of biological activity following incubation in SIF” value ([1]; pH 6)?
A: about 30%

Q: What about the “severe adverse events (SAEs)” value ([2]; 0.1 to 48.6 mg single oral dose) of the same compound?
A: no severe adverse events

Q: And the “tolerability of single oral dose” value ([2]; 0.1 to 48.6 mg)?
A: well-tolerated

Q: And the “activity after exposure to the acidic pH of the SGF” value [3]?
A: unaltered

Q: And the “biological activity after incubation with SGF (breakdown in SGF)” value [3]?
A: resistant to breakdown in SGF
